ChEMBL document CHEMBL1201862, “PubChem BioAssay data set” (2004)
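Interpolation was linear, between the two tested concentrations surrounding the appropriate level; five concentrations were tested over 48 hours in 96-well plates. GI50 = concentration required for 50% inhibition of growth.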 Active and inactive are the calls of the source. No stated cut-off is given here; in the data, active = GI50 up to about 1.1 µM and inactive = higher.

What was measured:
Assay in all cases: NCI-60 cell line screen, 48 h
ACHN = system: ACHN
OVCAR-5 = system: OVCAR-5
SK-OV-3 = system: SK-OV-3
SF-539 = system: SF-539
HOP-92 = system: HOP-92
786-0 = system: 786-0
SN12C = system: SN12C
SF-268 = system: SF-268
BT-549 = system: BT-549
A498 = system: A498
SK-MEL-28 = system: SK-MEL-28
M14 = system: M14
TK-10 = system: TK-10
HCC 2998 = system: HCC 2998
SK-MEL-5 = system: SK-MEL-5
HCT-116 = system: HCT-116
RPMI-8226 = system: RPMI-8226
T47D = system: T47D

## COC(Cc1ccccc1)NC(C)=O (configuration not stated)
ACHN
  GI50: > 100 µM (inactive)
OVCAR-5
  GI50: > 100 µM (inactive)
SK-OV-3
  GI50: > 100 µM (inactive)
SF-539
  GI50: > 100 µM (inactive)
HOP-92
  GI50: > 100 µM (inactive)
786-0
  GI50: > 100 µM (inactive)
SN12C
  GI50: > 100 µM (inactive)
SF-268
  GI50: > 100 µM (inactive)
BT-549
  GI50: > 100 µM (inactive)
A498
  GI50: > 100 µM (inactive)
SK-MEL-28
  GI50: > 100 µM (inactive)
M14
  GI50: > 100 µM (inactive)
TK-10
  GI50: > 100 µM (inactive)
HCC 2998
  GI50: > 100 µM (inactive)
SK-MEL-5
  GI50: > 100 µM (inactive)
HCT-116
  GI50: > 100 µM (inactive)
RPMI-8226
  GI50: > 100 µM (inactive)
T47D
  GI50: > 100 µM (inactive)

## C[C@H](CCC(=O)O)[C@H]1CC[C@H]2[C@@H]3[C@@H](O)C[C@@H]4C[C@H](O)CC[C@]4(C)[C@H]3CC[C@]12C
ACHN
  GI50: > 100 µM (inactive)
OVCAR-5
  GI50: > 100 µM (inactive)
SK-OV-3
  GI50: > 100 µM (inactive)
SF-539
  GI50: > 100 µM (inactive)
HOP-92
  GI50: > 100 µM (inactive)
786-0
  GI50: > 100 µM (inactive)
SN12C
  GI50: > 100 µM (inactive)
SF-268
  GI50: > 100 µM (inactive)
BT-549
  GI50: 38.8 µM (inactive)
A498
  GI50: > 100 µM (inactive)
SK-MEL-28
  GI50: 98.6 µM (inactive)
M14
  GI50: 95.3 µM (inactive)
TK-10
  GI50: 99.3 µM (inactive)
HCC 2998
  GI50: > 100 µM (inactive)
SK-MEL-5
  GI50: 62.1 µM (inactive)
HCT-116
  GI50: 61.7 µM (inactive)
RPMI-8226
  GI50: 38.1 µM (inactive)
T47D
  GI50: > 100 µM (inactive)

## C/C(=C\c1csc(C)n1)[C@@H]1C[C@@H]2O[C@]2(C)CCC[C@H](C)[C@H](O)[C@@H](C)C(=O)C(C)(C)[C@@H](O)CC(=O)O1 [PATUPILONE]
ACHN
  GI50: < 0.0001 µM (active)
OVCAR-5
  GI50: < 0.0001 µM (active)
SK-OV-3
  GI50: < 0.0001 µM (active)
SF-539
  GI50: < 0.0001 µM (active)
HOP-92
  GI50: < 0.0001 µM (active)
786-0
  GI50: < 0.0001 µM (active)
SN12C
  GI50: < 0.0001 µM (active)
SF-268
  GI50: < 0.0001 µM (active)
BT-549
  GI50: < 0.0001 µM (active)
A498
  GI50: < 0.0001 µM (active)
SK-MEL-28
  GI50: < 0.0001 µM (active)
M14
  GI50: < 0.0001 µM (active)
TK-10
  GI50: < 0.0001 µM (active)
HCC 2998
  GI50: < 0.0001 µM (active)
SK-MEL-5
  GI50: < 0.0001 µM (active)
HCT-116
  GI50: < 0.0001 µM (active)
RPMI-8226
  GI50: < 0.0001 µM (active)
T47D
  GI50: < 0.0001 µM (active)

## CC(C)(C)OC(=O)NCCC1SC2C=CC1C2 (configuration not stated)
ACHN
  GI50: > 100 µM (inactive)
OVCAR-5
  GI50: > 100 µM (inactive)
SK-OV-3
  GI50: > 100 µM (inactive)
SF-539
  GI50: > 100 µM (inactive)
HOP-92
  GI50: > 100 µM (inactive)
786-0
  GI50: > 100 µM (inactive)
SN12C
  GI50: > 100 µM (inactive)
SF-268
  GI50: > 100 µM (inactive)
BT-549
  GI50: > 100 µM (inactive)
A498
  GI50: > 100 µM (inactive)
SK-MEL-28
  GI50: > 100 µM (inactive)
M14
  GI50: > 100 µM (inactive)
TK-10
  GI50: > 100 µM (inactive)
HCC 2998
  GI50: > 100 µM (inactive)
SK-MEL-5
  GI50: 83.2 µM (inactive)
HCT-116
  GI50: > 100 µM (inactive)
RPMI-8226
  GI50: > 100 µM (inactive)
T47D
  GI50: 99.3 µM (inactive)

## O=c1[nH]nc(Cc2ccc(Cl)cc2)n1/N=C/c1ccc([N+](=O)[O-])o1
ACHN
  GI50: 2.12 µM (inactive)
OVCAR-5
  GI50: 6.85 µM (inactive)
SK-OV-3
  GI50: 5.22 µM (inactive)
SF-539
  GI50: 2.21 µM (inactive)
HOP-92
  GI50: 4.57 µM (inactive)
786-0
  GI50: 2.23 µM (inactive)
SN12C
  GI50: 3.78 µM (inactive)
SF-268
  GI50: 2.25 µM (inactive)
BT-549
  GI50: 1.87 µM (inactive)
A498
  GI50: 5.7 µM (inactive)
SK-MEL-28
  GI50: 3.03 µM (inactive)
M14
  GI50: 2.17 µM (inactive)
TK-10
  GI50: 4.27 µM (inactive)
HCC 2998
  GI50: 2.13 µM (inactive)
SK-MEL-5
  GI50: 2.61 µM (inactive)
HCT-116
  GI50: 1.29 µM (inactive)
RPMI-8226
  GI50: 1.12 µM (active)
T47D
  GI50: 21.4 µM (inactive)

## Cc1cccc2c1C(=O)[C@](C)([C@]1(C)Nc3cccc(C)c3C1=O)N2
ACHN
  GI50: 43.9 µM (inactive)
OVCAR-5
  GI50: 24.3 µM (inactive)
SK-OV-3
  GI50: 21.7 µM (inactive)
SF-539
  GI50: 29 µM (inactive)
HOP-92
  GI50: 27.3 µM (inactive)
786-0
  GI50: 39.4 µM (inactive)
SN12C
  GI50: 29.6 µM (inactive)
SF-268
  GI50: 16.1 µM (inactive)
BT-549
  GI50: 20.8 µM (inactive)
A498
  GI50: 60.5 µM (inactive)
SK-MEL-28
  GI50: 37.6 µM (inactive)
M14
  GI50: 33.9 µM (inactive)
HCC 2998
  GI50: 31.9 µM (inactive)
SK-MEL-5
  GI50: 29.4 µM (inactive)
HCT-116
  GI50: 56.6 µM (inactive)
RPMI-8226
  GI50: 10.8 µM (inactive)
T47D
  GI50: 28.8 µM (inactive)

## Cn1ccnc1Sc1ccc(/C=N/NC(=O)c2ccccc2[N+](=O)[O-])cc1[N+](=O)[O-]
ACHN
  GI50: 70.1 µM (inactive)
OVCAR-5
  GI50: > 100 µM (inactive)
SK-OV-3
  GI50: > 100 µM (inactive)
SF-539
  GI50: > 100 µM (inactive)
HOP-92
  GI50: 18 µM (inactive)
786-0
  GI50: 68.9 µM (inactive)
SN12C
  GI50: 60.3 µM (inactive)
SF-268
  GI50: > 100 µM (inactive)
BT-549
  GI50: 83.9 µM (inactive)
A498
  GI50: 58.9 µM (inactive)
SK-MEL-28
  GI50: > 100 µM (inactive)
M14
  GI50: > 100 µM (inactive)
TK-10
  GI50: 65.3 µM (inactive)
HCC 2998
  GI50: 36.7 µM (inactive)
SK-MEL-5
  GI50: 46.1 µM (inactive)
HCT-116
  GI50: 65.6 µM (inactive)
RPMI-8226
  GI50: 38.7 µM (inactive)
T47D
  GI50: 40.6 µM (inactive)

## C#CCOC(=O)C(N)CC(N)=O (configuration not stated)
ACHN
  GI50: > 100 µM (inactive)
OVCAR-5
  GI50: > 100 µM (inactive)
SK-OV-3
  GI50: > 100 µM (inactive)
SF-539
  GI50: > 100 µM (inactive)
HOP-92
  GI50: > 100 µM (inactive)
786-0
  GI50: > 100 µM (inactive)
SN12C
  GI50: > 100 µM (inactive)
SF-268
  GI50: > 100 µM (inactive)
BT-549
  GI50: > 100 µM (inactive)
A498
  GI50: > 100 µM (inactive)
SK-MEL-28
  GI50: > 100 µM (inactive)
M14
  GI50: > 100 µM (inactive)
TK-10
  GI50: > 100 µM (inactive)
HCC 2998
  GI50: > 100 µM (inactive)
SK-MEL-5
  GI50: > 100 µM (inactive)
HCT-116
  GI50: > 100 µM (inactive)
RPMI-8226
  GI50: > 100 µM (inactive)
T47D
  GI50: > 69 µM (inactive)

## O=c1ssc(Cl)c1Cl
ACHN
  GI50: > 7.26 µM (inactive)
OVCAR-5
  GI50: > 10 µM (inactive)
SK-OV-3
  GI50: > 10 µM (inactive)
SF-539
  GI50: > 10 µM (inactive)
HOP-92
  GI50: > 10 µM (inactive)
786-0
  GI50: > 4.7 µM (inactive)
SN12C
  GI50: > 10 µM (inactive)
SF-268
  GI50: > 10 µM (inactive)
BT-549
  GI50: > 10 µM (inactive)
A498
  GI50: > 10 µM (inactive)
SK-MEL-28
  GI50: > 10 µM (inactive)
M14
  GI50: > 10 µM (inactive)
TK-10
  GI50: > 10 µM (inactive)
HCC 2998
  GI50: > 10 µM (inactive)
SK-MEL-5
  GI50: > 10 µM (inactive)
HCT-116
  GI50: > 5.98 µM (inactive)
RPMI-8226
  GI50: 5.19 µM (inactive)
T47D
  GI50: > 10 µM (inactive)

## COc1cc(OCc2nc3ccccc3n3cccc23)cc(OC)c1OC
ACHN
  GI50: 21.6 µM (inactive)
OVCAR-5
  GI50: > 52 µM (inactive)
SK-OV-3
  GI50: 40.6 µM (inactive)
SF-539
  GI50: 24.8 µM (inactive)
HOP-92
  GI50: 10 µM (inactive)
786-0
  GI50: 24.4 µM (inactive)
SN12C
  GI50: 47 µM (inactive)
SF-268
  GI50: 41.9 µM (inactive)
BT-549
  GI50: 19.7 µM (inactive)
A498
  GI50: > 87.5 µM (inactive)
SK-MEL-28
  GI50: 22.1 µM (inactive)
M14
  GI50: 20.7 µM (inactive)
TK-10
  GI50: 32.7 µM (inactive)
HCC 2998
  GI50: 43.8 µM (inactive)
SK-MEL-5
  GI50: 2.42 µM (inactive)
HCT-116
  GI50: 17.5 µM (inactive)
RPMI-8226
  GI50: 1.34 µM (inactive)
T47D
  GI50: 3.78 µM (inactive)

## COc1cc(O)c2c(c1)C(O)C(O)CC1OC1C(=O)/C=C/CC(C)OC2=O (configuration not stated)
ACHN
  GI50: 3.2 µM (inactive)
OVCAR-5
  GI50: 12.2 µM (inactive)
SK-OV-3
  GI50: 19.7 µM (inactive)
SF-539
  GI50: 3.99 µM (inactive)
HOP-92
  GI50: 0.354 µM (active)
786-0
  GI50: 3.52 µM (inactive)
SN12C
  GI50: 3.72 µM (inactive)
SF-268
  GI50: 10.4 µM (inactive)
BT-549
  GI50: 0.979 µM (active)
A498
  GI50: 5.42 µM (inactive)
SK-MEL-28
  GI50: 0.194 µM (active)
M14
  GI50: 0.0933 µM (active)
TK-10
  GI50: 2.28 µM (inactive)
HCC 2998
  GI50: 6.34 µM (inactive)
SK-MEL-5
  GI50: 1.64 µM (inactive)
HCT-116
  GI50: 1.11 µM (active)
RPMI-8226
  GI50: 3.1 µM (inactive)
T47D
  GI50: 5.05 µM (inactive)
